The first assay addresses AMPK. Description: AMPK activation, enzyme-linked immunosorbent assay. It is filed as biochemical. The settings on record: compounds of Table 1 (Table 6). Here is the method:
Compounds of Table 1 were assayed for their ability to activate AMPK using an enzyme-linked immunosorbent assay.
Compounds of Table 2 were assayed for their ability to activate AMPK using an enzyme-linked immunosorbent assay.
Compounds of Table 3 were assayed for their ability to activate AMPK using an enzyme-linked immunosorbent assay.
Compounds of Table 4 were assayed for their ability to activate AMPK using an enzyme-linked immunosorbent assay.
Compounds of Table 5 were assayed for their ability to activate AMPK using an enzyme-linked immunosorbent assay.
What is called EC50 is the concentration at which the effect is half-maximal. A higher EC50 goes with weaker potency. Take `N#Cc1ccc(CN2CCC(NC3CCc4cc(OC5CCN(c6ccc(C(F)(F)F)cc6)CC5)ccc43)CC2)cc1` (stereo not shown) [1-160, 4-((4-(5-(1-(4-(trifluoromethyl)phenyl)piperidin-4-yloxy)-2,3-dihydro-1H-inden-1-ylamino)piperidin-1-yl)methyl)benzonitrile]: the EC50 is < 100 nM. Same read-out and setting: for `O=C(NC1CCN(Cc2ccc(N3CCOCC3)cc2)CC1)c1ccc(OC2CCN(c3ccc(C(F)(F)F)cc3)CC2)cn1` [1-40, N-(1-(4-morpholinobenzyl)piperidin-4-yl)-5-(1-(4-(trifluoromethyl)phenyl)piperidin-4-yloxy)picolinamide] the value was < 100 nM. Same read-out and setting: for `O=C(NC1CCN(Cc2ccc3ccccc3c2)CC1)c1ccc(OC2CCN(c3ccc(C(F)(F)F)cc3)CC2)cn1` [1-37, N-(1-(naphthalen-2-ylmethyl)piperidin-4-yl)-5-(1-(4-(trifluoromethyl)phenyl)piperidin-4-yloxy)picolinamide] the value was 500 to 1000 nM. `O=C(NC1CCN(Cc2ccncc2)CC1)c1sc2cc(OC3CCN(c4ccc(C(F)(F)F)cc4)CC3)ccc2c1Cl` [1-151, 3-chloro-N-(1-(pyridin-4-ylmethyl)piperidin-4-yl)-6-(1-(4-(trifluoromethyl)phenyl)piperidin-4-yloxy)benzo[b]thiophene-2-carboxamide]: the EC50 was < 100 nM. `O=C(N[C@@H]1CCN(Cc2ccncc2)C1)c1ccc(OC2CCN(c3ccc(C(F)(F)F)cc3)CC2)cn1` [1-25, (R)-N-(1-(pyridin-4-ylmethyl)pyrrolidin-3-yl)-5-(1-(4-(trifluoromethyl)phenyl)piperidin-4-yloxy)picolinamide] gave an EC50 of 100 to 500 nM.

Staying with this assay, now noted: compounds of Table 2 (Table 7).
`O=C(NC1CCN(C(=O)c2cccnc2)CC1)c1ccc2[nH]c3c(c2c1)CN(c1ccc(F)cc1)CC3` [2-40, 2-(4-fluorophenyl)-N-(1-nicotinoylpiperidin-4-yl)-2,3,4,5-tetrahydro-1H-pyrido [4,3-b]indole-8-carboxamide]: the 50% effective concentration (EC50) is > 100000 nM. Still for that read-out and setting: for `N#Cc1ccc(CN2CCC(NC(=O)c3ccc4[nH]c5c(c4c3)CN(C(=O)OCc3ccccc3)CC5)CC2)cc1` [2-1, benzyl 8-(1-(4-cyanobenzyl)piperidin-4-ylcarbamoyl)-3,4-dihydro-1H-pyrido[4,3-b]indole-2(5H)-carboxylate] the value was 1000 to 5000 nM.

Still in this assay, the particulars now being: compounds of Table 5 (Table 10).
With `O=C(NC1CCN(Cc2ccccc2)CC1)c1ccc(OC2CCN(Cc3ccc(F)c(F)c3)CC2)c(Cl)c1` [5-74, N-(1-benzylpiperidin-4-yl)-3-chloro-4-(1-(3,4-difluorobenzyl)piperidin-4-yloxy)benzamide], the concentration for a half-maximal effect (EC50) is < 1000 nM. On the same count and under the same terms, the figure for `CC(C)(C)OC(=O)N1CCC(NC(=O)c2ccc(OC3CCN(Cc4ccc(C#N)cc4)CC3)cc2)CC1` [5-78, tert-butyl 4-(4-(1-(4-cyanobenzyl)piperidin-4-yloxy)benzamido)piperidine-1-carboxylate] is < 1000 nM; for `O=C(NC1CCN(c2ccccc2)CC1)c1ccc(OC2CCN(c3ccc(C(F)(F)F)cc3)CC2)c(F)c1` [5-25, 3-fluoro-N-(1-phenylpiperidin-4-yl)-4-(1-(4-(trifluoromethyl)phenyl)piperidin-4-yloxy)benzamide] it is > 100000 nM. Same read-out and setting: for `O=C(NC1CCN(Cc2ccccc2)CC1)c1ccc(OC2CCN(Cc3ccc(OC(F)(F)F)cc3)CC2)c(Cl)c1` [5-54, N-(1-benzylpiperidin-4-yl)-3-chloro-4-(1-(4-(trifluoromethoxy)benzyl)piperidin-4-yloxy)benzamide] the value was < 1000 nM; for `Cc1ccc(CN2CCC(Oc3ccc(C(=O)NCCCN4CCOCC4)cc3)CC2)cc1` [5-104, 4-(1-(4-methylbenzyl)piperidin-4-yloxy)-N-(3-morpholinopropyl)benzamide], 10000 to 20000 nM.

Regarding `O=C(NC1CCN(Cc2ccccc2)CC1)c1ccc(OC2CCN(c3ccc(C(F)(F)F)cc3)CC2)c(Cl)c1` [5-17, N-(1-benzylpiperidin-4-yl)-3-chloro-4-(1-(4-(trifluoromethyl)phenyl)piperidin-4-yloxy)benzamide], the half-maximal effective concentration (EC50) is < 1000 nM.

The values are drawn from patent US9511058B2, “Methods for using carboxamide, sulfonamide and amine compounds” (Rigel Pharmaceuticals, Inc., priority 2010, dated 2016).
